Converted amounts (≈) assume the structure as drawn.
Experiments:
Type in all cases: functional
Escherichia coli [1] = assay: Antibacterial activity against Escherichia coli ATCC 25922
Staphylococcus aureus [2] = assay: Antibacterial activity against Staphylococcus aureus ATCC 13709
Escherichia coli [3] = assay: Antibacterial activity against Escherichia coli 0157:H07
Escherichia coli [4] = assay: Antibacterial activity against vancomycin-, ciprofloxacin-, gentamicin-sensitive Escherichia coli 1269640
Escherichia coli [5] = assay: Antibacterial activity against vancomycin-, ciprofloxacin-, gentamicin-resistant Escherichia coli 1269620
Escherichia coli [6] = assay: Antibacterial activity against vancomycin-, ciprofloxacin-, gentamicin-resistant Escherichia coli 1269621
Escherichia coli [7] = assay: Antibacterial activity against vancomycin-, ciprofloxacin-, gentamicin-resistant Escherichia coli 1269652
Escherichia coli [8] = assay: Antibacterial activity against vancomycin-, ciprofloxacin-, gentamicin-resistant Escherichia coli 1269653
Staphylococcus aureus [9] = assay: Antibacterial activity against Staphylococcus aureus ATCC […]
Staphylococcus aureus [10] = assay: Antibacterial activity against vancomycin-, ciprofloxacin-, gentamicin-resistant Staphylococcus aureus 1269615
Staphylococcus aureus [11] = assay: Antibacterial activity against vancomycin-intermediate and ciprofloxacin-, gentamicin-resistant Staphylococcus aureus 1269616
Staphylococcus aureus [12] = assay: Antibacterial activity against vancomycin-, ciprofloxacin-, gentamicin-resistant Staphylococcus aureus 1269617
Staphylococcus aureus [13] = assay: Antibacterial activity against vancomycin-intermediate and ciprofloxacin-, gentamicin-resistant Staphylococcus aureus 1269618
Staphylococcus aureus [14] = assay: Antibacterial activity against vancomycin-sensitive and oxymycin-, ciprofloxacin-, gentamicin-resistant Staphylococcus aureus 9269619
Staphylococcus aureus [15] = assay: Antibacterial activity against oxymycin-sensitive Staphylococcus aureus 1269669
Staphylococcus aureus [16] = assay: Antibacterial activity against oxymycin-sensitive Staphylococcus aureus 1269670
Staphylococcus capitis = assay: Antibacterial activity against Staphylococcus capitis 1269682
[17] = tested on: Staphylococcus epidermidis; assay: Antibacterial activity against Staphylococcus epidermidis 1269663
[18] = tested on: Staphylococcus epidermidis; assay: Antibacterial activity against oxymycin-, gentamicin-, levofloxacin-resistant Staphylococcus epidermidis 1269675
[19] = tested on: Staphylococcus epidermidis; assay: Antibacterial activity against oxymycin-, gentamicin-, levofloxacin-resistant Staphylococcus epidermidis 1269676
[20] = tested on: Staphylococcus epidermidis; assay: Antibacterial activity against oxymycin and gentamicin-resistant Staphylococcus epidermidis 1269677
[21] = tested on: Staphylococcus epidermidis; assay: Antibacterial activity against oxymycin-, gentamicin-, levofloxacin-resistant Staphylococcus epidermidis 1269680
Staphylococcus warneri = assay: Antibacterial activity against Staphylococcus warneri 1269686

Row | Compound | MIC (Escherichia coli [1]) | MIC (Staphylococcus aureus [2]) | MIC (Escherichia coli [3]) | MIC (Escherichia coli [4]) | MIC (Escherichia coli [5]) | MIC (Escherichia coli [6]) | MIC (Escherichia coli [7]) | MIC (Escherichia coli [8]) | MIC (Staphylococcus aureus [9]) | MIC (Staphylococcus aureus [10]) | MIC (Staphylococcus aureus [11]) | MIC (Staphylococcus aureus [12]) | MIC (Staphylococcus aureus [13]) | MIC (Staphylococcus aureus [14]) | MIC (Staphylococcus aureus [15]) | MIC (Staphylococcus aureus [16]) | MIC (Staphylococcus capitis) | MIC [17] | MIC [18] | MIC [19] | further results
1 | NCC[C@H](O)C(=O)N[C@@H]1C[C@H](N)[C@@H](O[C@H]2O[C@H](CO)[C@@H](O)[C@H](O)[C@H]2N)[C@H](O[C@@H]2O[C@H](CO)[C@@H](O[C@H]3O[C@@H](CN)[C@@H](O)[C@H](O)[C@H]3N)[C@H]2O)[C@H]1O | 8 µg/mL (≈ 11.2 µM) | 1.3 µg/mL (≈ 1.81 µM) | 8 µg/mL (≈ 11.2 µM) | 16 µg/mL (≈ 22.3 µM) | 8 µg/mL (≈ 11.2 µM) | 8 µg/mL (≈ 11.2 µM) | 32 µg/mL (≈ 44.6 µM) | 8 µg/mL (≈ 11.2 µM) | 4 µg/mL (≈ 5.58 µM) | > 128 µg/mL | > 128 µg/mL | > 128 µg/mL | > 128 µg/mL | > 128 µg/mL | 4 µg/mL (≈ 5.58 µM) | 4 µg/mL (≈ 5.58 µM) | 0.5 µg/mL (≈ 0.698 µM) | 1 µg/mL (≈ 1.4 µM) | 64 µg/mL (≈ 89.3 µM) | 0.5 µg/mL (≈ 0.698 µM) | MIC [20]: 16 µg/mL (≈ 22.3 µM); MIC [21]: 1 µg/mL (≈ 1.4 µM); MIC (Staphylococcus warneri): 0.25 µg/mL (≈ 0.349 µM)
2 | NCC[C@H](O)C(=O)N[C@@H]1C[C@H](N)[C@@H](O[C@H]2O[C@H](CN)[C@@H](O)[C@H](O)[C@H]2N)[C@H](O[C@@H]2O[C@H](CO)[C@@H](O[C@H]3O[C@@H](CN)[C@@H](O)[C@H](O)[C@H]3N)[C@H]2O)[C@H]1O | 2.5 µg/mL (≈ 3.49 µM) | 2.5 µg/mL (≈ 3.49 µM) | – | – | – | – | – | – | – | – | – | – | – | – | – | – | – | – | – | – | –
3 | NCC[C@@H](O)C(=O)N[C@H]1C[C@H](N)[C@@H](O[C@H]2O[C@H](CO)[C@@H](O)[C@H](O)[C@H]2N)[C@@H](O[C@H]2O[C@H](CO)[C@@H](O[C@H]3O[C@@H](CN)[C@@H](O)[C@H](O)[C@H]3N)[C@H]2OCCNCCc2ccccc2)[C@H]1O | 2 µg/mL (≈ 2.31 µM) | 0.6 µg/mL (≈ 0.694 µM) | 1 µg/mL (≈ 1.16 µM) | 4 µg/mL (≈ 4.63 µM) | 1 µg/mL (≈ 1.16 µM) | 2 µg/mL (≈ 2.31 µM) | 8 µg/mL (≈ 9.26 µM) | 2 µg/mL (≈ 2.31 µM) | 0.25 µg/mL (≈ 0.289 µM) | 64 µg/mL (≈ 74.1 µM) | 128 µg/mL (≈ 148 µM) | 32 µg/mL (≈ 37 µM) | 128 µg/mL (≈ 148 µM) | > 128 µg/mL | < 0.12 µg/mL | < 0.12 µg/mL | < 0.12 µg/mL | < 0.12 µg/mL | 16 µg/mL (≈ 18.5 µM) | < 0.12 µg/mL | MIC [20]: < 0.12 µg/mL; MIC [21]: < 0.12 µg/mL; MIC (Staphylococcus warneri): < 0.12 µg/mL

Further lines, with some results ahead:

Row | MIC (Escherichia coli [1]) | MIC (Staphylococcus aureus [2]) | Compound | MIC (Escherichia coli [3]) | MIC (Escherichia coli [4]) | MIC (Escherichia coli [5]) | MIC (Escherichia coli [6]) | MIC (Escherichia coli [7]) | MIC (Escherichia coli [8]) | MIC (Staphylococcus aureus [9]) | MIC (Staphylococcus aureus [10]) | MIC (Staphylococcus aureus [11]) | MIC (Staphylococcus aureus [12]) | MIC (Staphylococcus aureus [13]) | MIC (Staphylococcus aureus [14]) | MIC (Staphylococcus aureus [15]) | MIC (Staphylococcus aureus [16]) | MIC (Staphylococcus capitis) | MIC [17] | MIC [18] | MIC [19] | further results
4 | 20 µg/mL (≈ 34.3 µM) | 5 µg/mL (≈ 8.57 µM) | NC[C@@H]1O[C@H](O[C@H]2[C@@H](O)[C@H](O[C@@H]3[C@@H](O)[C@H](N)C[C@H](N)[C@H]3O[C@H]3O[C@H](CO)CC[C@H]3N)O[C@@H]2CO)[C@H](N)[C@@H](O)[C@@H]1O | – | – | – | – | – | – | – | – | – | – | – | – | – | – | – | – | – | – | –
5 | 40 µg/mL (≈ 54.7 µM) | 1 µg/mL (≈ 1.37 µM) | NC[C@@H]1O[C@H](O[C@H]2[C@@H](OCCNCCc3ccccc3)[C@@H](O[C@H]3[C@@H](O)[C@@H](N)C[C@@H](N)[C@H]3O[C@H]3O[C@H](CO)CC[C@H]3N)O[C@@H]2CO)[C@H](N)[C@@H](O)[C@@H]1O | – | – | – | – | – | – | – | – | – | – | – | – | – | – | – | – | – | – | –
